# Test results published in patent publication US11512069B2, “TLR7/8 antagonists and uses thereof” (Merck Patent GmbH, priority 2016, dated 2022).
# Target: T1, TLR7 (Homo sapiens, UniProt Q9NYK1)
# T1 construct: expressed in transfected cells; host or cells: HEK cells carrying TLR7 and an NF-kB reporter read with Steady-Glo
# T1 sequence (Q9NYK1 27-1049): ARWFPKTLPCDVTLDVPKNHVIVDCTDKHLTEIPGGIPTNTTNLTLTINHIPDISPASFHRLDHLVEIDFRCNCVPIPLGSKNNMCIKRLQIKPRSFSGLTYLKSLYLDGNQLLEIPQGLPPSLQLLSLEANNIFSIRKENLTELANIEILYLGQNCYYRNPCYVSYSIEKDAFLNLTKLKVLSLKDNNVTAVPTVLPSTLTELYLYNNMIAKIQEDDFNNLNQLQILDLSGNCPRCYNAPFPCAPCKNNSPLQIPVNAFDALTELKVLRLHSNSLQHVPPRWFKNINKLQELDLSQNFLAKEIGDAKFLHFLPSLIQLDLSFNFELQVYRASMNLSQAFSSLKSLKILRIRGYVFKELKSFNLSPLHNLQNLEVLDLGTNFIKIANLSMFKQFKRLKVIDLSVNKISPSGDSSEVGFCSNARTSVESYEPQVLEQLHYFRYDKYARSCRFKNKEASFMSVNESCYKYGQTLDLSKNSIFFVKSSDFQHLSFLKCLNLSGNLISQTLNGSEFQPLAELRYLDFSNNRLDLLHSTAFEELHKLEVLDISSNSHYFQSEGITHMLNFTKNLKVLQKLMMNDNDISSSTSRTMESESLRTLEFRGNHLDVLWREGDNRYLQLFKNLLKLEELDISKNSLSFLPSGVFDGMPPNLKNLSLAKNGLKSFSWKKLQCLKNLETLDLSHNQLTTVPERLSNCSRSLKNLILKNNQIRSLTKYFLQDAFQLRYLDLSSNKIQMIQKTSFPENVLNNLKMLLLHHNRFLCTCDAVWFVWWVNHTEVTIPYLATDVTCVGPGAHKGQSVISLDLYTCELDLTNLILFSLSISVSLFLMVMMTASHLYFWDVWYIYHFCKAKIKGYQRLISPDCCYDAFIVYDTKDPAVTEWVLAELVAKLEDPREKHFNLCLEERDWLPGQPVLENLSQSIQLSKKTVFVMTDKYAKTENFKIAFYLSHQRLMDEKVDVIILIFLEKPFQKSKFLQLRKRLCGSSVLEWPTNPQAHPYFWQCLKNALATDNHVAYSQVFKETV
# Assay: HEK Cell Assay (TLR7/NFKb HEK reporter cells, Steady-Glo)
# Format: cell-based
# Conditions: compound 30 min, then R*48 agonist 5 hours, Steady-Glo readout, read-out: Potency
# Description: Example 32: HEK Cell Assay
# Into 384 CulturePlates (Corning 3707) was placed 5000 c/w of TLR7/NFKb HEK cells in 30 uL DMEM without Phenil red (gibco #31053) and 10% i.a. FCS and 2 mM L-ZGLutamin. The cells were incubated for 24 h at 37 degrees Celsius, 10% carbon dioxide and 90% relative humidity, 3 uL of controls, standards, and compounds were dispensed to wells, incubated for 30 min then 3 uL of R*48 agonist in 20 mM Hepes was added. After incubation for 5 hours, it was allowed to stand at room temperature for 15 min, 10 uL of Steady-Glo substrate reagent was added and shake assay plate for 5 min at 1500 rpm. The assay plate was allowed to sit for 30 min at room temperature and then read plate on EnVision.
row,IC50 [µM],Structure (SMILES)
1,1 to 20,"C[C@@H]1C[C@H](c2ccc(C#N)c3ncccc23)CN(CC(=O)NCC2CCN(C)CC2)C1 (relative stereo) [Compound 74, cis-2-[3-(8-Cyano-quinolin-5-yl)-5-methyl-piperidin-1-yl]-N-(1-methyl-piperidin-4-ylmethyl)-acetamide]"
2,1 to 20,"C[C@@H]1C[C@@H](c2ccc(C#N)c3ncccc23)CN(CC(=O)NCC2CCN(C)CC2)C1 (relative stereo) [Compound 75, trans-2-[3-(8-Cyano-quinolin-5-yl)-5-methyl-piperidin-1-yl]-N-(1-methyl-piperidin-4-ylmethyl)-acetamide]"
3,> 20,"C[C@@H]1C[C@H](c2ccc(C#N)c3ncccc23)CN(CC(=O)Nc2cnn(C)c2)C1 (relative stereo) [Compound 76, cis-2-[3-(8-Cyano-quinolin-5-yl)-5-methyl-piperidin-1-yl]-N-(1-methyl-1H-pyrazol-4-yl)-acetamide]"
4,> 20,"C[C@@H]1C[C@@H](c2ccc(C#N)c3ncccc23)CN(CC(=O)Nc2cnn(C)c2)C1 (relative stereo) [Compound 77, trans-2-[3-(8-Cyano-quinolin-5-yl)-5-methyl-piperidin-1-yl]-N-(1-methyl-1H-pyrazol-4-yl)-acetamide]"
5,< 1,C[C@@H]1C[C@H](c2ccc(C#N)c3ncccc23)CN(C(=O)CC2[C@H]3CN(C)C[C@@H]23)C1 (relative stereo) [Compound 79]
6,> 20,"C[C@@H]1C[C@H](c2ccc(C#N)c3ncccc23)CN(C(=O)Cc2cnn(C)c2)C1 (relative stereo) [Compound 107, cis-5-Methyl-1-[2-(1-methyl-1H-pyrazol-4-yl)-acetyl]-piperidin-3-yl-quinoline-8-carbonitrile]"
7,1 to 20,"C[C@@H]1C[C@H](c2ccc(C#N)c3ncccc23)CN(C(=O)c2cnn(C)c2)C1 (relative stereo) [Compound 108, cis-5-Methyl-1-(1-methyl-H-pyrazole-4-carbonyl)-piperidin-3-yl-quinoline-8-carbonitrile]"
8,< 1,"COCCN[C@@H]1C[C@H](C)C[C@H](c2ccc(C#N)c3nccnc23)C1 (relative stereo) [Compound 133, 8-[(cis-1,3,5)-3-[(2-methoxyethyl)amino]-5-methylcyclohexyl]quinoxaline-5-carbonitrile]"

# The next lines start with the molecule.
row,Structure (SMILES),IC50 [µM]
1,C[C@@H]1C[C@H](c2ccc(C#N)c3ncccc23)CN(C(=O)CN2CCC2)C1 (relative stereo) [Compound 33],1 to 20
2,"C[C@@H]1C[C@H](c2ccc(C#N)c3ncccc23)CN(C(=O)CC2CN(C)C2)C1 (relative stereo) [Compound 34, cis-1-Methyl-1-[2-(1-methyl-azetidin-3-yl)-acetyl]-piperidin-3-yl-quinoline-8-carbonitrile]",1 to 20
3,"C[C@@H]1C[C@H](c2ccc(C#N)c3ncccc23)CN(C(=O)c2ccc(N3CCC3)nc2)C1 (relative stereo) [Compound 36, cis-5-[1-(6-Azetidin-1-yl-pyridine-3-carbonyl)-5-methyl-piperidin-3-yl]-quinoline-8-carbonitrile]",> 20
4,"C[C@@H]1C[C@H](c2ccc(C#N)c3ncccc23)CN(C(=O)C2CCC(F)(F)CC2)C1 (relative stereo) [Compound 37, cis-5-[1-(4,4-Difluoro-cyclohexanecarbonyl)-5-methyl-piperidin-3-yl]-quinoline-8-carbonitrile]",> 20
5,"C[C@@H]1C[C@H](c2ccc(C#N)c3ncccc23)CN(C(=O)c2cc3n(n2)CCC3)C1 (relative stereo) [Compound 38, cis-5-[1-(5,6-Dihydro-4H-pyrrolo[1,2-b]pyrazole-2-carbonyl)-5-methyl-piperidin-3-yl]-quinoline-8-carbonitrile]",> 20
6,"C[C@@H]1C[C@H](c2ccc(C#N)c3ncccc23)CN(C(=O)C2CCN(C)CC2)C1 (relative stereo) [Compound 39, cis-5-[5-Methyl-1-(1-methyl-piperidine-4-carbonyl)-piperidin-3-yl]-quinoline-8-carbonitrile]",1 to 20
7,"C[C@@H]1C[C@H](c2ccc(C(F)(F)F)c3ncccc23)CN(C(=O)NC2CC2)C1 (relative stereo) [Compound 40, cis-Cyclopropyl-3-methyl-5-[8-(trifluoromethyl)-5-quinolyl] piperidine-1-carboxamide]",1 to 20
8,"C[C@@H]1C[C@@H](c2ccc(C(F)(F)F)c3ncccc23)CN(C(=O)NC2CC2)C1 (relative stereo) [Compound 41, trans-Cyclopropyl-3-methyl-5-[8-(trifluoromethyl)-5-quinolyl] piperidine-1-carboxamide]",1 to 20
9,"C[C@@H]1C[C@H](c2ccc(C#N)c3ncccc23)CN(C(=O)CC2(N)CC2)C1 (relative stereo) [Compound 62, Cis-1-[2-(1-Amino-cyclopropyl)-acetyl]-5-methyl-piperidin-3-yl-quinoline-8-carbonitrile]",1 to 20
10,"C[C@H]1C[C@H](c2ccc(C#N)c3ncccc23)CN(C(=O)CC2(N)CC2)C1 (relative stereo) [Compound 63, Trans-1-[2-(1-Amino-cyclopropyl)-acetyl]-5-methyl-piperidin-3-yl-quinoline-8-carbonitrile]",1 to 20
11,C[C@H]1C[C@H](c2ccc(C#N)c3ncccc23)CN(CC(N)=O)C1 (relative stereo) [Compound 66],> 20
12,C[C@@H]1C[C@H](c2ccc(C#N)c3ncccc23)CN(CC(N)=O)C1 (relative stereo) [Compound 67],> 20
13,"C[C@@H]1C[C@H](c2ccc(C#N)c3ncccc23)CN(CC(=O)NC2CCN(C)CC2)C1 (relative stereo) [Compound 68, cis-2-[3-(8-Cyano-quinolin-5-yl)-5-methyl-piperidin-1-yl]-N-(1-methyl-piperidin-4-yl)-acetamide]",1 to 20
14,"C[C@@H]1C[C@@H](c2ccc(C#N)c3ncccc23)CN(CC(=O)NC2CCN(C)CC2)C1 (relative stereo) [Compound 69, trans-2-[3-(8-Cyano-quinolin-5-yl)-5-methyl-piperidin-1-yl]-N-(1-methyl-piperidin-4-yl)-acetamide]",1 to 20
15,"C[C@@H]1C[C@H](c2ccc(C#N)c3ncccc23)CN(CC(=O)N2CCC(N(C)C)CC2)C1 (relative stereo) [Compound 70, cis-5-(1-{2-[4-(dimethylamino)piperidin-1-yl]-2-oxoethyl}-5-methylpiperidin-3-yl) quinoline-8-carbonitrile]",1 to 20
16,"C[C@@H]1C[C@@H](c2ccc(C#N)c3ncccc23)CN(CC(=O)N2CCC(N(C)C)CC2)C1 (relative stereo) [Compound 71, trans-5-(1-{2-[4-(dimethylamino)piperidin-1-yl]-2-oxoethyl}-5-methylpiperidin-3-yl) quinoline-8-carbonitrile]",1 to 20
17,"C[C@@H]1C[C@H](c2ccc(C#N)c3ncccc23)CN(CC(=O)NCCN2CCN(C)CC2)C1 (relative stereo) [Compound 72, cis-2-[3-(8-Cyano-quinolin-5-yl)-5-methyl-piperidin-1-yl]-N-[2-(4-methyl-piperazin-1-yl)-ethyl]-acetamide]",1 to 20
18,"C[C@@H]1C[C@@H](c2ccc(C#N)c3ncccc23)CN(CC(=O)NCCN2CCN(C)CC2)C1 (relative stereo) [Compound 73, trans-2-[3-(8-Cyano-quinolin-5-yl)-5-methyl-piperidin-1-yl]-N-[2-(4-methyl-piperazin-1-yl)-ethyl]-acetamide]",1 to 20
